Here are results for two molecules from US8759311B2, “Use of siRNA targetting SIPA1L1 for the reduction of adipogenesis” (Sanofi, priority 2009, dated 2014).

The test system of data set [1] is C57BL/6J mice. In words: high fat diet fed C57BL/6J mice treated with Rimonabant. It is filed as in vivo, mouse. Particulars: HFD mice, 10 mg.kg−1.day−1 for one month. From the text: C57BL/6J mice, which are obesity-prone (Collins S. et al., 2004) were fed for 6 months with a high fat diet (HFD).
In data set [2] the test system is Sipa1l1. In words: retroviral shRNA transduction of 3T3-L1 cells, Sipa1l1 mRNA by RT-PCR. As to conditions: day 0 prior differentiation. It is filed as cell-based, mouse. The protocol:
3T3-L1 cells were cultured in DMEM (Gibco) with 10% FBS (Gibco) at 5% CO2. After retroviral infection (see below), cells were allow to grow to confluence in either 100-mm or 60-mm dishes in DMEM with 10% FBS. Once confluence was reached, cells were exposed to differentiation medium containing dexamethasone (1 μM), insulin (5 μg/ml), and isobutylmethylxanthine ([…]) (DMI). After 2 days cells were maintained in medium containing insulin (5 μg/ml) until ready for harvest at 7 days.
Retroviruses were constructed in the RNAi-Ready pSIREN-RetroQ ZsGreen (pSIREN Clontech) or pMSCV puromycin plasmid (pMSCV, Clontech). Viral constructs were transfected using calcium-phosphate method described in Jordan M. et al (2004) into 293 HEK packaging cells along with constructs encoding gag-pol and the VSV-G protein. Supernatants were harvested after 48 h in presence of 3 μm of Trichostatin A (Sigma) and either used immediately or snap frozen and stored at −80° C. for later use. Viral supernatants were added to the cells for 6 hours in the presence of polybrene (4 μg/ml) and diluted two times with fresh medium for the next 15 hours.
Total RNA was isolated from cultured cells using peqGOLD TriFast reagent according to the manufacturer's instructions (Axonlab). First strand cDNA was synthesized from 0.5 μg of total RNA using random primers and Superscript II (Invitrogen). […]

Consider `Cc1c(C(=O)NN2CCCCC2)nn(-c2ccc(Cl)cc2Cl)c1-c1ccc(Cl)cc1` [Rimonabant], for which, in data set [1], the body weight entry was “normalize” and the glucose tolerance entry is reported as “normalized”.

B1: shLuc: control shRNA against the firefly luciferase protein (SEQ ID NO. 7) (nucleic acid)
chain: GATCCGTGCGTTGCTAGTACCAATTCAAGAGATTGGTACTAGCAACGCACTTTTTTACGCGTG
modifications: the letters are possibly those of the target site
For B1, the “knockdown of Sipa1l1 mRNA” value in data set [2] is reported as “no inhibition”.
